One block for each compound: values may come before it.
Assays:
USP19 [1] = target: T1, USP19 (Homo sapiens, UniProt O94966); experiment: Cellular target engagement using HTRF assay (USP19-Flag transfected cells); format: cell-based; details: HEK293T cells; read-out: HTRF TE IC50
T1 construct: expressed in transfected cells; host or cells: HEK293T
T1 sequence (O94966 1-1318): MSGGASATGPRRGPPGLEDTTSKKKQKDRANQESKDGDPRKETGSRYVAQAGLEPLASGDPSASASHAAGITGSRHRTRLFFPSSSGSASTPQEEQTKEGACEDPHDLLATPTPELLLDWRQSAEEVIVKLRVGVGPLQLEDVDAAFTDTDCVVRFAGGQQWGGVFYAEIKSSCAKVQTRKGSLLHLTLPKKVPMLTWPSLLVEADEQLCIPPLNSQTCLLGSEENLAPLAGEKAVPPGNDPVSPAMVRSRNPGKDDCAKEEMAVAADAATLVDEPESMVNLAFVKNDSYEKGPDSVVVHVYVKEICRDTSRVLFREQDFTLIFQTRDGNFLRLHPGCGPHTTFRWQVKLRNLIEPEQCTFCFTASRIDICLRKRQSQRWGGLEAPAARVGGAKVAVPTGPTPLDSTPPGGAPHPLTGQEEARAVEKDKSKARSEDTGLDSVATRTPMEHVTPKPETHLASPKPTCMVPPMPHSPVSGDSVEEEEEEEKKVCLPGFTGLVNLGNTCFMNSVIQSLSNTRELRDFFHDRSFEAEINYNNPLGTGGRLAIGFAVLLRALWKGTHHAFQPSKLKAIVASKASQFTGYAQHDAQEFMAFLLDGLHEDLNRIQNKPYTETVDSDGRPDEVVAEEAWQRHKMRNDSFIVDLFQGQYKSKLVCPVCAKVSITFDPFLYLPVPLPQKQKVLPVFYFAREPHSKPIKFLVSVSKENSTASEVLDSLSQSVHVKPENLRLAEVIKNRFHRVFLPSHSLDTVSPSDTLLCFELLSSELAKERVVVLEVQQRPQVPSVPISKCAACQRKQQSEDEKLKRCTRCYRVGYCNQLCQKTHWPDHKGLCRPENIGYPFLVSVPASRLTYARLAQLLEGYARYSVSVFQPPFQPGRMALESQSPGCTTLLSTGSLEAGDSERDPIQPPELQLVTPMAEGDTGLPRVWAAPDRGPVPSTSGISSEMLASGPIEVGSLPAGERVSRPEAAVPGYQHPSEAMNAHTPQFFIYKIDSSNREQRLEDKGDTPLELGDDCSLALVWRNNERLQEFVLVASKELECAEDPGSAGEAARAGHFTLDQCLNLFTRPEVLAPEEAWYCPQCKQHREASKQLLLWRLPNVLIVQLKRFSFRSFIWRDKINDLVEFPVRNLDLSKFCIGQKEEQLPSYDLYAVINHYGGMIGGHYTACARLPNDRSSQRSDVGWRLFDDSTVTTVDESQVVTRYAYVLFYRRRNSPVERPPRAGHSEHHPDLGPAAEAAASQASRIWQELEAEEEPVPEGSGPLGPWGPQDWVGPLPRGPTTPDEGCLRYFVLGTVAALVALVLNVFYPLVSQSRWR
Procedure: USP19 cellular target engagement was determined in a homogenous time resolved fluorescence (HTRF) assay using HA-tagged ubiquitin vinyl pentynyl sulfone (VPS) probe (UbiQ-193, UbiQ Bio) and a USP19-Flag overexpression construct. Inhibitors were stored as 10 mM DMSO stocks in an inert environment (low humidity, dark, low oxygen, rt) using the StoragePod® system (Roylan Developments). USP19-Flag transfected cells were incubated with serially diluted compound in an 11 point dose response curve (from 50 μM to 0.01 nM) for 2 h and then washed in PBS and lysed. Unless otherwise stated, all HTRF reagents were purchased from CisBio. HTRF assays using cell lysates were completed in 384 well plates (Greiner) in a 20 μL total volume. Cell lysates were incubated with HA-tagged ubiquitin VPS probe for 40 min in PPI detection buffer prior to addition of anti-HA and anti-FLAG HTRF detection reagents. HTRF was measured every 1 h for 18 h using a Pherastar FSX plate reader (excitation of 337 nm, emission of 620/665 nm). Data was normalised to DMSO (no compound controls) and fitted using IC50 values derived using Prism (GraphPad) using nonlinear regression curve fitting.

[2] = Caco-2 permeability assay; format: in vitro ADME; details: human, apical to basolateral (A:B), read-out: caco-2 Papp AB
Procedure: Caco-2 cells are commonly used as an in vitro model for the prediction of human intestinal absorption of test compounds. When cultured, Caco-2 cells (derived from a human colorectal carcinoma) spontaneously differentiate into monolayers of polarised enterocytes. The cells are seeded on multiwell-insert plates and form a confluent monolayer over 20 d before the assay. On day 20, compound was added to the apical side of the membrane and the flux of the compound across the monolayer was monitored over 2 h. All data was generated at Cyptotex.

[3] = Thermodynamic solubility assay; format: physicochemical; details: aqueous buffer, thermodynamic from solid, PBS buffer pH 7.4, read-out: TSol
Procedure: Test compound (˜0.5 mg, accurately weighed) was suspended in PBS buffer pH 7.4 (Dulbecco A) to a concentration of 1 mg/mL in a high recovery glass vial in duplicate. The suspensions were shaken at 300 rpm at rt for 64 h. About 250 μL of suspension were then transferred to a MultiScreen® Solubility filter plate (Millipore) in duplicate. Concentrations of the filtrates were then quantified against a 5-point calibration curve in a mixture of acetonitrile/PBS buffer (top concentration […]). After filtration and matrix match, the calibration and assay plates were analysed on a Bioteck Synergy 4 plate reader (240-400 nm). Final concentration of the test compound in the filtrate was calculated using the slope of the calibration curve.

Full-length USP19 = target: T2, Full-length USP19 (Homo sapiens, UniProt O94966); experiment: USP19 fluorescence polarisation (FP) assay, Ubiquitin-Lys-TAMRA substrate; format: biochemical; details: fluorescence polarisation assay, qualitative
T2 construct: Full-length USP19 was purchased from Boston Biochem (E-576); purchased Boston Biochem E-576
T2 sequence (O94966 1-1318): T1 sequence (O94966 1-1318)
How it was run: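 Full-length human USP19 (added at 2.5 nM) was preincubated 30 min at RT with inhibitor (serial dilutions 200 μM to 2 μM) in 50 mM HEPES pH 7.4, 150 mM NaCl, 5 mM DTT, 0.05% BSA, 0.05% CHAPS. Ubiquitin-Lys-TAMRA isopeptide substrate (added at 500 nM) started the reaction, and FP (Ex 530/Em 575 nm) was read every 15 min over 90 min. IC50 came from non-linear regression of signal normalised to no-compound control, averaged over at least two duplicate experiments.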

USP19 [4] = experiment: Cellular target engagement using western blotting (Ub-PA / Ub-VME probe); format: cell-based; details: breast cancer, neuroblastoma and mouse skeletal muscle cell lines
Procedure: Cells from a breast cancer cell line, a neuroblastoma cell line and a mouse skeletal muscle cell line were treated with a USP19 inhibitor compound (ADC-141) for 2 hrs, lysed (lysis buffer: 50 mM Tris pH 7.4; 150 mM NaCl; 5 mM MgCl2; 0.5 mM EDTA; 0.5% NP40; 10% Glycerol; 2 mM DTT) and Ubiquitin-propargylamine (Ub-PA; UbiQ) or Ubiquitin-vinyl methyl ester (Ub-VME; Almac Sciences Scotland Limited) was then added. Samples were analysed by western blotting probing for USP19 (EC50 determined by densitometry).

[5] = system: diet-induced obese (DIO) mouse; experiment: Diet-induced obesity (DIO) mouse model with OGTT; format: in vivo, Male C57BL6/J mice; details: 5 or 25 mg/kg i.p. BID
Procedure: To assess obesity and insulin resistance, a diet-induced obesity mouse model was used.
Male C57BL6/J mice were continuously provided with high-fat diet (D12451, 45% kcal as fat; Research Diets, New Jersey, USA) and filtered tap water ad libitum for the duration of the study. From day 0, mice were administered vehicle i.p. BID, USP19 inhibitor (ADC-141) i.p. BID at 5 mg/kg or 25 mg/kg, or positive control liraglutide 0.1 mg/kg s.c. BID.
Body weight was measured daily. On Day 13, body composition was be assessed by DEXA. On Day 15, fasting glucose and insulin levels were measured before and during an oral glucose tolerance test (OGTT) to assess improvements in glucose control. The OGTT was performed following an overnight fast. […] An OGTT was performed the following morning (approx. 16 h post fast). Mice were dosed with vehicle or test compound (starting at 08.45) to a timed schedule 30 minutes prior to the administration of the glucose challenge (2.0 g/kg po). Blood samples were taken immediately prior to dosing (B1), immediately prior to glucose administration (B2) and 15, 30, 60 and 120 minutes after glucose administration.

male C57bl/6 mice = experiment: Sciatic nerve denervation muscle wasting model; format: in vivo, mouse; details: 75 mg/kg IP twice daily
Procedure: To induce muscle wasting, a 1 cm segment of the sciatic nerve in the thigh was removed from mice (male C57bl/6 mice at 8-10 weeks of age; n=10 per group) under isoflurane anaesthesia and analgesia with carprofen. A sham operation was carried out in the opposite leg as a control.
Mice were randomised into Vehicle or Test groups, with all animals weighed to ensure a similar mean weight in each group. ADC-141, a USP19 inhibitory compound at 75 mg/kg or Vehicle was administered IP twice daily starting from the evening post-operation.
Mice were sacrificed 14 days later. Fat pads, liver, gastrocnemius and tibialis anterior muscles were harvested. Tissue mass were measured in both groups.

In vivo mouse PK = details: C57BL/6N mice, IV 1 mg/kg
[6] = Kinetic solubility (KSol); format: physicochemical

SMILES: O=C(N1CC[C@@H](Cn2cnc(-c3ccccc3)cc2=O)C2(CCCC2)C1)N1CCNC[C@H]1c1ccccc1
- IC50 (USP19 [1]): 1000 nM
- Papp A→B at 2 h [2]: 1 ×10⁻⁶ cm/s

SMILES: O=C(N1CC[C@@H](Cn2ccc(-c3ccccc3)cc2=O)C2(CCCC2)C1)N1CCNC[C@H]1c1ccccc1
- IC50 (USP19 [1]): 3000 nM
- solubility thermodynamic at 64 h [3]: 1 µM
- Papp A→B at 2 h [2]: 1 ×10⁻⁶ cm/s

SMILES: C[C@H](CC1CCCCC1)C(=O)N1CC[C@@](O)(Cn2cc(C(=O)N3CCNCC3)c(-c3ccccc3)cc2=O)C2(CCCC2)C1 [ADC-141, 1-(((S)-7-((R)-3-cyclohexyl-2-methylpropanoyl)-10-hydroxy-7-azaspiro[4.5]decan-10-yl)methyl)-4-phenyl-5-(piperazine-1-carbonyl)pyridin-2(1H)-one]
- USP19 inhibitory activity (Full-length USP19): shown to have USP19 inhibitory activity
- cell permeability (USP19 [4]): good cell permeability
- EC50 determined by densitometry (USP19 [4]; 2 hrs treatment): low nanomolar
- fat mass ([5]; DEXA Day 13): reduction in fat mass
- lean body mass ([5]; DEXA Day 13): preserved
- plasma glucose in OGTT ([5]; Day 15): decreased plasma glucose
- plasma insulin in OGTT ([5]; Day 15): decreased plasma insulin
- OGTT response ([5]; Day 15, glucose 2.0 g/kg po): dose-dependent improvement in OGTT response
- overall body weight gain ([5]; high-fat diet): reduction in overall body weight gain
- cumulative food intake ([5]; vs vehicle control): reduction in cumulative food intake
- liver mass (male C57bl/6 mice; 2 weeks, vs vehicle): increase in liver mass
- mass of the epididymal fat pad (male C57bl/6 mice; 2 weeks, vs vehicle): significantly smaller fat pads
- muscle wasting in the gastrocnemius muscle (male C57bl/6 mice; 14 days, trend did not reach significance): reduced
- loss of muscle mass in the tibialis anterior muscle (male C57bl/6 mice; 14 days, vs vehicle): significantly lower loss of muscle mass

Now from value to compound:

- clearance (In vivo mouse PK): 3 mL/min/kg
- half-life (In vivo mouse PK; read-out: IV t1/2 (converted)): 2 h
- solubility thermodynamic at 64 h [3]: 1 µM
SMILES: N[C@@H]1CCN(C(=O)N2CC[C@@](O)(Cn3cnc(-c4ccccc4)cc3=O)C3(CCCC3)C2)[C@H](c2ccccc2)C1 [F 11 9 N W032, reference compound]

- KSol [6]: 1 µM
SMILES: C[C@H](CC(F)(F)F)C(=O)N1CC[C@@](O)(Cn2cnc(-c3ccccc3)cc2=O)C2(CCCC2)C1 [F 11 9 N W 11]

Source: patent US20240327382A1 (ALMAC DISCOVERY LIMITED, priority 2021, published 2024)
